Results: PubChem BioAssay (NCI)
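Assay format: 96-well plates, 48-hour exposure. The concentration for full growth arrest is given as TGI.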

What was measured:
Experiment in all cases: DTP human tumour cell line panel, 48 h
OVCAR-4 ovarian = tested on: OVCAR-4 ovarian
OVCAR-3 ovarian = tested on: OVCAR-3 ovarian
SK-OV-3 ovarian = tested on: SK-OV-3 ovarian
SK-MEL-28 melanoma = tested on: SK-MEL-28 melanoma
SF-295 CNS = tested on: SF-295 CNS
IGROV1 ovarian = tested on: IGROV1 ovarian
TK-10 renal = tested on: TK-10 renal
UACC-257 melanoma = tested on: UACC-257 melanoma
NCI-H23 lung = tested on: NCI-H23 lung
NCI/ADR-RES ovarian = tested on: NCI/ADR-RES ovarian
COLO 205 colon = tested on: COLO 205 colon
SN12C renal = tested on: SN12C renal
SF-539 CNS = tested on: SF-539 CNS
RPMI-8226 leukemia = tested on: RPMI-8226 leukemia
BT-549 breast = tested on: BT-549 breast
LOX IMVI melanoma = tested on: LOX IMVI melanoma
A549 NSCLC = tested on: A549 NSCLC
MDA-N = tested on: MDA-N
T-47D breast = tested on: T-47D breast
MDA-MB-231 breast = tested on: MDA-MB-231 breast
SNB-75 CNS = tested on: SNB-75 CNS
NCI-H522 lung = tested on: NCI-H522 lung
CAKI-1 renal = tested on: CAKI-1 renal
SNB-19 CNS = tested on: SNB-19 CNS
HT29 colon = tested on: HT29 colon
HOP-92 NSCLC = tested on: HOP-92 NSCLC
MCF7 breast = tested on: MCF7 breast
UO-31 renal = tested on: UO-31 renal
MOLT-4 leukemia = tested on: MOLT-4 leukemia
PC-3 prostate = tested on: PC-3 prostate
UACC-62 melanoma = tested on: UACC-62 melanoma
HCT-116 colon = tested on: HCT-116 colon
ACHN renal = tested on: ACHN renal
NCI-H460 lung = tested on: NCI-H460 lung
M14 melanoma = tested on: M14 melanoma
HOP-62 NSCLC = tested on: HOP-62 NSCLC
NCI-H226 lung = tested on: NCI-H226 lung
MALME-3M melanoma = tested on: MALME-3M melanoma
SR leukemia = tested on: SR leukemia
MDA-MB-435 = tested on: MDA-MB-435
DU-145 prostate = tested on: DU-145 prostate
SF-268 CNS = tested on: SF-268 CNS
786-0 renal = tested on: 786-0 renal
EKVX NSCLC = tested on: EKVX NSCLC
SK-MEL-5 melanoma = tested on: SK-MEL-5 melanoma
HS 578T breast = tested on: HS 578T breast
OVCAR-8 ovarian = tested on: OVCAR-8 ovarian
HCT-15 colon = tested on: HCT-15 colon
SW-620 colon = tested on: SW-620 colon
SK-MEL-2 melanoma = tested on: SK-MEL-2 melanoma
K-562 leukemia = tested on: K-562 leukemia
RXF 393 renal = tested on: RXF 393 renal
HCC-2998 colon = tested on: HCC-2998 colon
OVCAR-5 ovarian = tested on: OVCAR-5 ovarian
KM12 colon = tested on: KM12 colon
HL-60(TB) leukemia = tested on: HL-60(TB) leukemia
U251 CNS = tested on: U251 CNS
CCRF-CEM leukemia = tested on: CCRF-CEM leukemia
A498 renal = tested on: A498 renal

## O=[N+]([O-])c1ccc(-c2nc3ccc(Cl)cc3[nH]2)cc1
OVCAR-4 ovarian
  TGI: > 100 µM
OVCAR-3 ovarian
  TGI: > 100 µM
SK-OV-3 ovarian
  TGI: > 100 µM
SK-MEL-28 melanoma
  TGI: > 100 µM
SF-295 CNS
  TGI: > 100 µM
IGROV1 ovarian
  TGI: > 100 µM
TK-10 renal
  TGI: > 100 µM
UACC-257 melanoma
  TGI: > 100 µM
NCI-H23 lung
  TGI: > 100 µM
NCI/ADR-RES ovarian
  TGI: > 100 µM
COLO 205 colon
  TGI: > 100 µM
SN12C renal
  TGI: > 100 µM
SF-539 CNS
  TGI: > 100 µM
RPMI-8226 leukemia
  TGI: > 100 µM
BT-549 breast
  TGI: > 100 µM
LOX IMVI melanoma
  TGI: > 100 µM
A549 NSCLC
  TGI: > 100 µM
MDA-N
  TGI: > 100 µM
T-47D breast
  TGI: > 100 µM
MDA-MB-231 breast
  TGI: > 100 µM
SNB-75 CNS
  TGI: > 100 µM
NCI-H522 lung
  TGI: > 100 µM
CAKI-1 renal
  TGI: > 100 µM
SNB-19 CNS
  TGI: > 100 µM
HT29 colon
  TGI: > 100 µM
HOP-92 NSCLC
  TGI: > 100 µM
MCF7 breast
  TGI: > 100 µM
UO-31 renal
  TGI: > 100 µM
MOLT-4 leukemia
  TGI: > 100 µM
PC-3 prostate
  TGI: > 100 µM
UACC-62 melanoma
  TGI: > 100 µM
HCT-116 colon
  TGI: > 100 µM
ACHN renal
  TGI: > 100 µM
NCI-H460 lung
  TGI: > 100 µM
M14 melanoma
  TGI: > 100 µM
HOP-62 NSCLC
  TGI: > 100 µM
NCI-H226 lung
  TGI: > 100 µM
MALME-3M melanoma
  TGI: > 100 µM
SR leukemia
  TGI: > 100 µM
MDA-MB-435
  TGI: > 100 µM
DU-145 prostate
  TGI: > 100 µM
SF-268 CNS
  TGI: > 100 µM
786-0 renal
  TGI: > 100 µM
EKVX NSCLC
  TGI: > 100 µM
SK-MEL-5 melanoma
  TGI: > 100 µM
HS 578T breast
  TGI: > 100 µM
OVCAR-8 ovarian
  TGI: > 100 µM
HCT-15 colon
  TGI: > 100 µM
SW-620 colon
  TGI: > 100 µM

## CC(C)C(C(=O)O)N1C(=O)c2ccccc2C1=O (stereo not given)
OVCAR-4 ovarian
  TGI: > 100 µM
OVCAR-3 ovarian
  TGI: > 100 µM
SK-OV-3 ovarian
  TGI: > 100 µM
SK-MEL-28 melanoma
  TGI: > 100 µM
SK-MEL-2 melanoma
  TGI: 0.612 µM
SF-295 CNS
  TGI: > 100 µM
IGROV1 ovarian
  TGI: > 100 µM
TK-10 renal
  TGI: > 100 µM
UACC-257 melanoma
  TGI: > 100 µM
NCI-H23 lung
  TGI: > 100 µM
K-562 leukemia
  TGI: > 100 µM
NCI/ADR-RES ovarian
  TGI: > 100 µM
RXF 393 renal
  TGI: > 100 µM
HCC-2998 colon
  TGI: > 100 µM
COLO 205 colon
  TGI: > 100 µM
SN12C renal
  TGI: > 100 µM
RPMI-8226 leukemia
  TGI: > 100 µM
BT-549 breast
  TGI: > 100 µM
LOX IMVI melanoma
  TGI: > 100 µM
OVCAR-5 ovarian
  TGI: > 100 µM
A549 NSCLC
  TGI: > 100 µM
MDA-N
  TGI: > 100 µM
T-47D breast
  TGI: > 100 µM
MDA-MB-231 breast
  TGI: > 100 µM
SNB-75 CNS
  TGI: > 100 µM
NCI-H522 lung
  TGI: > 100 µM
KM12 colon
  TGI: > 100 µM
CAKI-1 renal
  TGI: > 100 µM
SNB-19 CNS
  TGI: > 100 µM
HT29 colon
  TGI: > 100 µM
HOP-92 NSCLC
  TGI: > 100 µM
MCF7 breast
  TGI: > 100 µM
MOLT-4 leukemia
  TGI: > 100 µM
PC-3 prostate
  TGI: > 100 µM
UACC-62 melanoma
  TGI: > 100 µM
HCT-116 colon
  TGI: > 100 µM
HL-60(TB) leukemia
  TGI: > 100 µM
ACHN renal
  TGI: > 100 µM
NCI-H460 lung
  TGI: > 100 µM
M14 melanoma
  TGI: > 100 µM
HOP-62 NSCLC
  TGI: > 100 µM
NCI-H226 lung
  TGI: > 100 µM
U251 CNS
  TGI: > 100 µM
MALME-3M melanoma
  TGI: > 100 µM
CCRF-CEM leukemia
  TGI: > 100 µM
MDA-MB-435
  TGI: > 100 µM
DU-145 prostate
  TGI: > 100 µM
SF-268 CNS
  TGI: > 100 µM
786-0 renal
  TGI: > 100 µM
EKVX NSCLC
  TGI: > 100 µM
SK-MEL-5 melanoma
  TGI: > 100 µM
HS 578T breast
  TGI: > 100 µM
OVCAR-8 ovarian
  TGI: > 100 µM
A498 renal
  TGI: > 100 µM
HCT-15 colon
  TGI: > 100 µM
SW-620 colon
  TGI: > 100 µM
